Results on one compound are retold here after PMC11999338, “Factor XI localization in human deep venous thrombus and function of activated factor XI on venous thrombus formation and hemostasis” (Research and Practice in Thrombosis and Haemostasis, 2025).

The test system of data set [1] is jugular vein thrombus. Nature of the data set: Rabbit model of jugular vein thrombosis by endothelial denudation and luminal stenosis. It is filed as in vivo. To be noted: rabbits; for venous thrombus weight compared with control: 90 minutes before thrombus formation, thrombus weighed after 3 hours. The protocol: The protocols of the venous thrombosis and skin bleeding models in rabbits were as follows (Supplementary Figure 2). First, fasting rabbits were orally administered a solvent as a control (n = 10), a FXIa inhibitor (ONO-1600586, 5 mg/kg, n = 10; 15 mg/kg, n = 10; and 50 mg/kg, n = 11), or a FXa inhibitor ([…], n = 10 each) using a Nelaton catheter of 5 mm diameter (IZUMO Health Co, Ltd) 90 minutes before thrombus formation. […] Additional anesthesia with one-third amount of the above-mentioned mixture of drugs was administered 80 minutes after the first injection, and all surgical operations proceeded under aseptic conditions. Briefly, 90 minutes postadministration of the solvent, ONO-1600586, or rivaroxaban, venous thrombi were induced in rabbit jugular veins through endothelial denudation using a 3F balloon catheter (Edwards Lifesciences), according to a previous study, and the method was modified to induce luminal stenosis. A 2 mm polyethylene tube was placed outside the vessel. Both the jugular vein and polyethylene tube were ligated, and the tube was removed (Supplementary Figure 3). Next, 3 hours after thrombus formation and stenosis, the rabbits were infused with heparin (500 U/kg, i.v.) and then euthanized with an overdose of pentobarbital (60 mg/kg, i.v.). Subsequently, the animals were perfused with 50 mL phosphate-buffered saline (0.01 mol/L), and the jugular veins were sampled. The venous thrombi were immediately removed from the venous wall and weighed. […] Paraffin-embedded sections (4 μm thick) of the rabbit jugular vein thrombus were stained with HE and morphologically assessed. Consecutive sections of thrombi were immunohistochemically stained with antibodies against fibrin (Millipore) and GPIIb/IIIa (Affinity Biologicals Inc). Images were digitized using a photosensitive color CCD camera (BX51, OLYMPUS). Finally, the area of the red-stained erythrocytes in HE staining and the immunopositive areas for fibrin and GPIIb/IIIa were semiquantified using a color imaging morphometry system (WinROOF, Mitani).

A further data set concerns skin bleeding. Nature of the data set: Rabbit skin bleeding time and volume. It is filed as in vivo. To be noted: rabbits; for bleeding time / bleeding volume: skin incision 90 minutes after oral administration, ONO-1600586 5, 15, 50 mg/kg, rivaroxaban 1.5, 5, 15 mg/kg. The protocol: The protocols of the venous thrombosis and skin bleeding models in rabbits were as follows (Supplementary Figure 2). First, fasting rabbits were orally administered a solvent as a control (n = 10), a FXIa inhibitor (ONO-1600586, 5 mg/kg, n = 10; 15 mg/kg, n = 10; and 50 mg/kg, n = 11), or a FXa inhibitor (rivaroxaban, 1.5 mg/kg, 5 mg/kg, and 15 mg/kg, n = 10 each) using a Nelaton catheter of 5 mm diameter (IZUMO Health Co, Ltd) 90 minutes before thrombus formation. […] Additional anesthesia with one-third amount of the above-mentioned mixture of drugs was administered 80 minutes after the first injection, and all surgical operations proceeded under aseptic conditions. Ninety minutes after administering the solvent, rivaroxaban (1.5, 5, and 15 mg/kg), and ONO-1600586 (5, 15, and 50 mg/kg), skin bleeding was induced using 2 lines of 3 cm length incisions on both legs of the rabbit. Next, wet Kimwipes (Kimberly-Clark Corp) were placed on the injured lesions, and the bleeding time was measured. To measure the bleeding volume, we collected the Kimwipes into a falcon tube filled with 20 mL of saline each, 1 to 2 minutes for 30 minutes, and then removed the Kimwipes. The collected blood was centrifuged at 900 × g for 5 minutes at room temperature, and the supernatant was discarded. One milliliter of distilled water was added to the pellet and then hemolyzed. The bleeding volume was estimated using a spectrophotometer at 540 nm (SpectraMax 190 Microplate Reader, Molecular Devices, LLC). A standard curve was generated through the sequential dilution of rabbit blood. Finally, the number of erythrocytes was measured using a hematology analyzer (XP-300, Sysmex).

The test system of data set [2] is jugular vein thrombus. In words: Stasis-induced thrombus formation in rabbit jugular veins. The data set is classed as in vivo. To be noted: rabbits, oral ONO-1600586 50 mg/kg or rivaroxaban 15 mg/kg 60 minutes before stasis, 6 hours stasis. The protocol:
The protocols of venous thrombosis by stasis were as follows (Supplementary Figure 4). First, fasting rabbits were orally administered a solvent as a control (n = 8), a FXIa inhibitor (ONO-1600586, 50 mg/kg, n = 8), or a FXa inhibitor (rivaroxaban, 15 mg/kg, n = 8) using a Nelaton catheter of 5 mm diameter (IZUMO Health Co, Ltd) 60 minutes before thrombus formation. The process of thrombus formation was performed under general anesthesia through the subcutaneous injection of a mixture of medetomidine hydrochloride (0.08 mg/kg body weight), butorphanol tartrate (0.2 mg/kg), and midazolam (0.4 mg/kg). Briefly, 60 minutes postadministration of the solvent, ONO-1600586, or rivaroxaban, venous thrombi were induced in rabbit jugular veins by ligations and luminal stenosis. To induce luminal stenosis, a 1 mm polyethylene tube was placed outside the vessel. Both the jugular vein and polyethylene tube were ligated 4 cm upstream of the ligature, and the tube was removed (Supplementary Figure 5). Next, 6 hours after stasis in the jugular vein, the rabbits were infused with heparin (500 U/kg, i.v.). They were then euthanized with an overdose of pentobarbital (60 mg/kg, i.v.), and the jugular veins were sampled. In this model, the animals were not perfused with phosphate-buffered saline because the thrombi were fragile. The venous thrombi were immediately removed from the venous wall and weighed.

The subject of another data set is PT and aPTT. Nature of the data set: PT and aPTT of human blood with inhibitor added in vitro. The data set is classed as biochemical. To be noted: ONO-1600586 3 μmol/L, rivaroxaban 1 μmol/L.

Molecules are shown by their SMILES. Entries after “also recorded” stand apart in the source; their conditions may differ.

Consider `O=C(NC[C@H]1CN(c2ccc(N3CCOCC3=O)cc2)C(=O)O1)c1ccc(Cl)s1` [rivaroxaban], for which the “venous thrombus weight compared with control” value in the data set on jugular vein thrombus [1] (1 mg/kg oral (so in the source)) is reported as “tended to reduce”. Also, in the data set on jugular vein thrombus [1] (5 mg/kg oral), the “venous thrombus weight compared with control” value is on record as “tended to reduce”. The “venous thrombus weight compared with control” value with jugular vein thrombus [1] (15 mg/kg oral, 15 mg/kg) is “significantly reduced; also recorded: similarly reduced”. In addition, in the data set on jugular vein thrombus [1] (compared with control and ONO-1600586 groups), the “immunopositive area of fibrin in venous thrombus” value is given as “tended to be smaller”. For the same compound, in the data set on jugular vein thrombus [1] (histology of jugular vein thrombus, comparison among groups), the “areas of erythrocytes or immunopositive areas of fibrin or GPIIb/IIIa in venous thrombus” value is “did not differ”. In the data set on skin bleeding (15 mg/kg oral), the “bleeding time compared with the control” value was “significantly prolonged” and the “bleeding volume compared with the control” value is recorded as “increased”. Besides, in the data set with skin bleeding, the bleeding time result was “prolonged bleeding time” and the bleeding volume result is given as “increased bleeding volume dose-dependently”. Further, in the data set with skin bleeding (listed as Rivaroxaban), the bleeding time result is on record as “dose-dependently prolonged” and the bleeding volume result is recorded as “increased”. Also, in the data set with jugular vein thrombus [2], the “stasis-induced venous thrombus weight compared with control” value is listed as “significantly reduced; also recorded: similarly reduced”. In the data set with PT and aPTT, the “PT compared with control” value came to 1.9 fold and the “aPTT compared with control” value is on record as 1.8 fold. In the data set with PT and aPTT (n = 8), this compound came in with a PT of 19 ± 3 s and an aPTT of 62 ± 5 s.
